Reference: publication PMC5218480 (PLoS ONE, 2017)

Tested on: MV-4-11 cells
Test: Gene expression microarray analysis (Affymetrix PrimeView) and GSEA
Type: cell-based, human
Parameters: RFU PODN (11730768_x_at) / Fold change /veh PODN (11730768_x_at) / RFU LINC00158 (11744669_a_at) / Fold change /veh LINC00158 (11744669_a_at) / RFU DUSP10 (11751237_a_at) / Fold change /veh DUSP10 (11751237_a_at) / RFU ID3 (11757404_x_at) / Fold change /veh ID3 (11757404_x_at) / RFU PLEKHG5 (11737974_s_at) / Fold change /veh PLEKHG5 (11737974_s_at) / RFU LRRC4B (11730491_at) / Fold change /veh LRRC4B (11730491_at) / RFU GIMAP4 (11747438_a_at) / Fold change /veh GIMAP4 (11747438_a_at) / RFU KRT8 (11758183_x_at) / Fold change /veh KRT8 (11758183_x_at) / RFU CNN1 (11734310_a_at) / Fold change /veh CNN1 (11734310_a_at) / RFU VPS37D (11726825_at) / Fold change /veh VPS37D (11726825_at) / RFU C10orf10 (11716522_x_at) / Fold change /veh C10orf10 (11716522_x_at) / RFU KIR2DL2 /// KIR2DL4 /// KIR2DL5A /// KIR2DL5B /// KIR2DS1 /// KIR2DS2 /// KIR2DS3 /// KIR2DS4 /// KIR3DL3 /// KIR3DL3 /// KIR3DS1 (11738374_at) / Fold change /veh KIR2DL2 /// KIR2DL4 /// KIR2DL5A /// KIR2DL5B /// KIR2DS1 /// KIR2DS2 /// KIR2DS3 /// KIR2DS4 /// KIR3DL3 /// KIR3DL3 /// KIR3DS1 (11738374_at) / RFU C1QL1 (11718748_at) / Fold change /veh C1QL1 (11718748_at) / RFU TMPRSS4 (11747572_a_at) / Fold change /veh TMPRSS4 (11747572_a_at) / RFU HAMP (11756126_x_at) / Fold change /veh HAMP (11756126_x_at) / RFU RNFT2 (11725882_a_at) / Fold change /veh RNFT2 (11725882_a_at) / RFU NR4A2 (11747474_a_at) / Fold change /veh NR4A2 (11747474_a_at) / RFU ABCC12 (11746883_a_at) / Fold change /veh ABCC12 (11746883_a_at) / RFU TMEM136 (11760407_x_at) / Fold change /veh TMEM136 (11760407_x_at) / RFU CLDN22 /// WWC2 (11732394_at) / Fold change /veh CLDN22 /// WWC2 (11732394_at) / RFU HLA-DPB1 (11760878_x_at) / Fold change /veh HLA-DPB1 (11760878_x_at) / RFU SPINT1 (11716480_a_at) / Fold change /veh SPINT1 (11716480_a_at) / RFU GAP43 (11754022_s_at) / Fold change /veh GAP43 (11754022_s_at) / RFU A4GNT (11735810_at) / Fold change /veh A4GNT (11735810_at) / RFU PRB3 (11715151_x_at) / Fold change /veh PRB3 (11715151_x_at) / RFU TUBB4B (11761932_at) / Fold change /veh TUBB4B (11761932_at) / RFU CAPN14 (11732068_a_at) / Fold change /veh CAPN14 (11732068_a_at) / RFU TMCC2 (11721928_a_at) / Fold change /veh TMCC2 (11721928_a_at) / RFU IRGQ (11745062_a_at) / Fold change /veh IRGQ (11745062_a_at) / RFU FAM174B (11720279_a_at) / Fold change /veh FAM174B (11720279_a_at) / RFU TMPRSS4 (11748680_a_at) / Fold change /veh TMPRSS4 (11748680_a_at) / RFU FAM212B (11763350_a_at) / Fold change /veh FAM212B (11763350_a_at) / RFU PLEKHG5 (11743358_a_at) / Fold change /veh PLEKHG5 (11743358_a_at) / RFU ZSCAN30 (11745921_a_at) / Fold change /veh ZSCAN30 (11745921_a_at) / RFU CMKLR1 (11741424_a_at) / Fold change /veh CMKLR1 (11741424_a_at) / RFU LOC101060620 /// MAPK8IP1 (11723275_at) / Fold change /veh LOC101060620 /// MAPK8IP1 (11723275_at) / RFU SPTSSB (11747773_x_at) / Fold change /veh SPTSSB (11747773_x_at) / RFU PRSS12 (11739890_at) / Fold change /veh PRSS12 (11739890_at) / RFU BIN1 (11741810_x_at) / Fold change /veh BIN1 (11741810_x_at) / RFU WNT11 (11732464_a_at) / Fold change /veh WNT11 (11732464_a_at) / RFU C10orf10 (11716521_a_at) / Fold change /veh C10orf10 (11716521_a_at) / RFU C5orf56 (11738089_at) / Fold change /veh C5orf56 (11738089_at) / RFU CYB561 (11721691_x_at) / Fold change /veh CYB561 (11721691_x_at) / RFU ANKRD19P (11752326_a_at) / Fold change /veh ANKRD19P (11752326_a_at) / RFU OR2T12 /// OR2T33 /// OR2T8 (11738714_s_at) / Fold change /veh OR2T12 /// OR2T33 /// OR2T8 (11738714_s_at) / RFU VCAN (11748164_a_at) / Fold change /veh VCAN (11748164_a_at) / RFU JSRP1 (11732532_at) / Fold change /veh JSRP1 (11732532_at) / RFU KRTAP10-11 (11738290_x_at) / Fold change /veh KRTAP10-11 (11738290_x_at) / RFU MYO3A (11730013_a_at) / Fold change /veh MYO3A (11730013_a_at) / RFU EBF3 (11725865_a_at) / Fold change /veh EBF3 (11725865_a_at) / RFU CAMK2N1 (11719241_x_at) / Fold change /veh CAMK2N1 (11719241_x_at) / RFU C5orf56 (11738088_a_at) / Fold change /veh C5orf56 (11738088_a_at) / RFU OLFML3 (11715873_a_at) / Fold change /veh OLFML3 (11715873_a_at) / RFU LOC100653217 /// NTM (11731650_a_at) / Fold change /veh LOC100653217 /// NTM (11731650_a_at) / RFU MAPK11 (11762145_a_at) / Fold change /veh MAPK11 (11762145_a_at) / RFU FIZ1 (11724087_x_at) / Fold change /veh FIZ1 (11724087_x_at) / RFU OASL (11726364_x_at) / Fold change /veh OASL (11726364_x_at) / RFU SOX15 (11748057_x_at) / Fold change /veh SOX15 (11748057_x_at) / RFU CD79A (11719716_a_at) / Fold change /veh CD79A (11719716_a_at) / RFU HIST1H1D (11736915_at) / Fold change /veh HIST1H1D (11736915_at) / RFU CASKIN2 (11723855_a_at) / Fold change /veh CASKIN2 (11723855_a_at) / RFU LOC730098 (11760151_x_at) / Fold change /veh LOC730098 (11760151_x_at) / RFU OR4N2 (11742367_at) / Fold change /veh OR4N2 (11742367_at) / RFU PRRT2 (11749266_a_at) / Fold change /veh PRRT2 (11749266_a_at) / RFU SNX32 (11753110_a_at) / Fold change /veh SNX32 (11753110_a_at) / RFU CDHR5 (11726645_a_at) / Fold change /veh CDHR5 (11726645_a_at) / RFU RCAN1 (11760418_a_at) / Fold change /veh RCAN1 (11760418_a_at) / RFU FAM167A (11723789_a_at) / Fold change /veh FAM167A (11723789_a_at) / RFU FAM26E (11764081_at) / Fold change /veh FAM26E (11764081_at) / RFU ISYNA1 (11749810_s_at) / Fold change /veh ISYNA1 (11749810_s_at) / RFU ACY1 (11761880_at) / Fold change /veh ACY1 (11761880_at) / RFU 11764098_at / Fold change /veh 11764098_at / RFU SAMD14 (11745864_x_at) / Fold change /veh SAMD14 (11745864_x_at) / RFU NPB (11741838_a_at) / Fold change /veh NPB (11741838_a_at) / RFU TMPRSS6 (11731388_a_at) / Fold change /veh TMPRSS6 (11731388_a_at) / RFU KRTAP10-2 (11738614_at) / Fold change /veh KRTAP10-2 (11738614_at) / RFU ARHGAP8 /// PRR5-ARHGAP8 (11727945_x_at) / Fold change /veh ARHGAP8 /// PRR5-ARHGAP8 (11727945_x_at) / RFU KRTAP5-7 /// NADSYN1 (11734609_at) / Fold change /veh KRTAP5-7 /// NADSYN1 (11734609_at) / RFU RASL12 (11751679_a_at) / Fold change /veh RASL12 (11751679_a_at) / RFU CDKN2B (11736163_a_at) / Fold change /veh CDKN2B (11736163_a_at) / RFU PRF1 (11729649_at) / Fold change /veh PRF1 (11729649_at) / RFU, ZNF638 /// ZNF638-IT1 / Fold change vs veh, ZNF638 /// ZNF638-IT1 / RFU, PANK3 / Fold change vs veh, PANK3 / RFU, SH3YL1 / Fold change vs veh, SH3YL1 / RFU, ZEB2 / Fold change vs veh, ZEB2 / RFU, NRIP1 / Fold change vs veh, NRIP1 / RFU, PTTG1IP / Fold change vs veh, PTTG1IP / RFU, CAPN2 / Fold change vs veh, CAPN2 / RFU, MED14 / Fold change vs veh, MED14 / RFU, SNORA58 / Fold change vs veh, SNORA58 / RFU, C1orf63 / Fold change vs veh, C1orf63 / RFU, LRRFIP1 / Fold change vs veh, LRRFIP1 / RFU, NDUFAF7 / Fold change vs veh, NDUFAF7 / RFU, SLC12A2 / Fold change vs veh, SLC12A2 / RFU, IBTK / Fold change vs veh, IBTK / RFU, ESF1 / Fold change vs veh, ESF1 / Fold change vs veh, TMEM50B / RFU, TAOK1 / Fold change vs veh, TAOK1 / RFU, ACBD3 / Fold change vs veh, ACBD3 / RFU, TMA16 / Fold change vs veh, TMA16 / RFU, RWDD3 / Fold change vs veh, RWDD3 / RFU, BCAT1 / Fold change vs veh, BCAT1 / RFU, EDEM3 / Fold change vs veh, EDEM3 / RFU, TMEM33 / Fold change vs veh, TMEM33 / RFU, WDR75 / Fold change vs veh, WDR75 / RFU, AHCTF1 / Fold change vs veh, AHCTF1 / RFU, TFRC / Fold change vs veh, TFRC / RFU, ZDHHC17 / Fold change vs veh, ZDHHC17 / RFU, NOM1 / Fold change vs veh, NOM1 / RFU, ARL8B / Fold change vs veh, ARL8B / RFU, ZBTB11 / Fold change vs veh, ZBTB11 / RFU, TAMM41 / Fold change vs veh, TAMM41 / RFU, KIAA1704 /// LOC100996395 / Fold change vs veh, KIAA1704 /// LOC100996395 / RFU, ING1 / Fold change vs veh, ING1 / RFU, TRMT61B / Fold change vs veh, TRMT61B / RFU, FUBP3 / Fold change vs veh, FUBP3 / RFU, TP53 / Fold change vs veh, TP53 / RFU, TNKS2 / Fold change vs veh, TNKS2 / RFU, ZFP14 / Fold change vs veh, ZFP14 / RFU, ACTR2 / Fold change vs veh, ACTR2 / RFU, PPP3R1 / Fold change vs veh, PPP3R1 / RFU, PIK3R1 / Fold change vs veh, PIK3R1 / RFU, HNRNPA1 / Fold change vs veh, HNRNPA1 / RFU, RNF170 / Fold change vs veh, RNF170 / RFU, ZNF28 / Fold change vs veh, ZNF28 / RFU, RNGTT / Fold change vs veh, RNGTT / RFU, OGT / Fold change vs veh, OGT / RFU, BRD1 / Fold change vs veh, BRD1 / RFU, MARS / Fold change vs veh, MARS / RFU, ZNF655 / Fold change vs veh, ZNF655 / RFU, FAHD1 / Fold change vs veh, FAHD1 / RFU, BDP1 / Fold change vs veh, BDP1 / RFU, LRRCC1 / Fold change vs veh, LRRCC1 / RFU, ARID1A / Fold change vs veh, ARID1A / RFU, ZNF146 / Fold change vs veh, ZNF146 / RFU, ZNF330 / Fold change vs veh, ZNF330 / RFU, GPN3 / Fold change vs veh, GPN3 / RFU, C9orf123 / Fold change vs veh, C9orf123 / RFU, N4BP2L2 / Fold change vs veh, N4BP2L2 / RFU, ARFIP1 / Fold change vs veh, ARFIP1 / RFU, FAM179B / Fold change vs veh, FAM179B / RFU, BCL10 / Fold change vs veh, BCL10 / RFU, UHRF1BP1L / Fold change vs veh, UHRF1BP1L / RFU, BET1 / Fold change vs veh, BET1 / RFU, CNOT2 / Fold change vs veh, CNOT2 / RFU, ZNF268 / Fold change vs veh, ZNF268 / Fold change vs veh, ZNF507 / RFU, DGCR2 / Fold change vs veh, DGCR2 / RFU, WDSUB1 / Fold change vs veh, WDSUB1 / Fold change vs veh, HSP90B1 /// MIR3652 / RFU, ADSS / Fold change vs veh, ADSS / RFU, GK / Fold change vs veh, GK / RFU, ZNF148 / Fold change vs veh, ZNF148 / RFU, TAF9 / Fold change vs veh, TAF9 / RFU, SLC1A5 / Fold change vs veh, SLC1A5 / RFU, SLMO2 / Fold change vs veh, SLMO2 / RFU, ABCC4 / Fold change vs veh, ABCC4 / RFU, LOC101060439 /// RAP1B / Fold change vs veh, LOC101060439 /// RAP1B / RFU, RFX7 / Fold change vs veh, RFX7 / RFU, GTPBP10 / Fold change vs veh, GTPBP10 / RFU, CNEP1R1 / Fold change vs veh, CNEP1R1 / RFU, BIVM-ERCC5 /// ERCC5 / Fold change vs veh, BIVM-ERCC5 /// ERCC5 / RFU, ILF3 / Fold change vs veh, ILF3 / RFU 11762660_at / Fold change /veh 11762660_at / RFU VCAN (11757783_s_at) / Fold change /veh VCAN (11757783_s_at) / RFU DDX43 (11728927_at) / Fold change /veh DDX43 (11728927_at) / RFU KRT8 (11758188_x_at) / Fold change /veh KRT8 (11758188_x_at) / RFU NKD1 (11759106_at) / Fold change /veh NKD1 (11759106_at) / RFU SRD5A1 (11742802_a_at) / Fold change /veh SRD5A1 (11742802_a_at) / RFU TPSAB1 /// TPSB2 (11721975_s_at) / Fold change /veh TPSAB1 /// TPSB2 (11721975_s_at) / RFU GSTM3 (11746129_a_at) / Fold change /veh GSTM3 (11746129_a_at) / RFU IL23R (11737362_x_at) / Fold change /veh IL23R (11737362_x_at) / RFU TMEM51 (11727254_a_at) / Fold change /veh TMEM51 (11727254_a_at) / RFU PIWIL2 (11732686_x_at) / Fold change /veh PIWIL2 (11732686_x_at) / RFU ORM1 (11744905_x_at) / Fold change /veh ORM1 (11744905_x_at) / RFU CCDC152 (11743942_at) / Fold change /veh CCDC152 (11743942_at) / RFU ECM1 (11717891_a_at) / Fold change /veh ECM1 (11717891_a_at) / RFU IL23R (11748794_a_at) / Fold change /veh IL23R (11748794_a_at) / RFU TNFAIP8L3 (11732012_x_at) / Fold change /veh TNFAIP8L3 (11732012_x_at) / RFU MBOAT4 (11741988_at) / Fold change /veh MBOAT4 (11741988_at) / RFU 11764193_at / Fold change /veh 11764193_at / RFU TMEM53 (11763286_at) / Fold change /veh TMEM53 (11763286_at) / RFU MAGEB2 (11727129_at) / Fold change /veh MAGEB2 (11727129_at) / RFU TMEM200A (11744735_a_at) / Fold change /veh TMEM200A (11744735_a_at) / RFU CCDC152 (11751479_a_at) / Fold change /veh CCDC152 (11751479_a_at) / RFU FAM211A (11726209_a_at) / Fold change /veh FAM211A (11726209_a_at) / RFU RGS16 (11746705_a_at) / Fold change /veh RGS16 (11746705_a_at) / RFU VCAN (11755009_s_at) / Fold change /veh VCAN (11755009_s_at) / RFU RHOB (11743442_s_at) / Fold change /veh RHOB (11743442_s_at) / RFU RGS16 (11720943_a_at) / Fold change /veh RGS16 (11720943_a_at) / RFU RGS16 (11720944_at) / Fold change /veh RGS16 (11720944_at) / RFU, VPS4B / Fold change vs veh, VPS4B / RFU, CREB1 / Fold change vs veh, CREB1 / RFU, DNAJC13 / Fold change vs veh, DNAJC13 / RFU, GNAQ / Fold change vs veh, GNAQ / RFU, CDK5R1 / Fold change vs veh, CDK5R1 / RFU, ZRANB3 / Fold change vs veh, ZRANB3 / RFU, CUL4A / Fold change vs veh, CUL4A / RFU, CCNY / Fold change vs veh, CCNY / RFU, UFL1 / Fold change vs veh, UFL1 / RFU, COG3 / Fold change vs veh, COG3 / RFU, DIAPH2 / Fold change vs veh, DIAPH2 / RFU, SKA2 / Fold change vs veh, SKA2 / RFU, AFF3 / Fold change vs veh, AFF3 / RFU, LMF1 / Fold change vs veh, LMF1 / RFU, IPO11 / Fold change vs veh, IPO11 / RFU, DFFB / Fold change vs veh, DFFB / RFU, FOXP1 / Fold change vs veh, FOXP1 / RFU, CARD8 / Fold change vs veh, CARD8 / RFU, STRN3 / Fold change vs veh, STRN3 / RFU, ADK / Fold change vs veh, ADK / RFU, RASSF2 / Fold change vs veh, RASSF2 / RFU, WIPF1 / Fold change vs veh, WIPF1 / RFU, LARP1B / Fold change vs veh, LARP1B / RFU, RASA1 / Fold change vs veh, RASA1 / RFU, RB1 / Fold change vs veh, RB1 / RFU, PPFIA1 / Fold change vs veh, PPFIA1 / RFU, MAT2A / Fold change vs veh, MAT2A / RFU, CCT5 / Fold change vs veh, CCT5 / RFU, WDR92 / Fold change vs veh, WDR92 / RFU, CUX1 / Fold change vs veh, CUX1 / RFU, TTC7A / Fold change vs veh, TTC7A / RFU, TMEM135 / Fold change vs veh, TMEM135 / RFU, DEPTOR / Fold change vs veh, DEPTOR / RFU, CPM / Fold change vs veh, CPM / RFU, DNAJB6 / Fold change vs veh, DNAJB6 / RFU, CACNA2D3 / Fold change vs veh, CACNA2D3 / RFU, DTX4 / Fold change vs veh, DTX4 / RFU, TFCP2 / Fold change vs veh, TFCP2 / RFU, GMCL1 /// GMCL1P1 / Fold change vs veh, GMCL1 /// GMCL1P1 / RFU, AEBP2 / Fold change vs veh, AEBP2 / RFU, SNHG1 /// SNORD22 /// SNORD25 /// SNORD26 /// SNORD27 /// SNORD28 /// SNORD29 /// SNORD31 / Fold change vs veh, SNHG1 /// SNORD22 /// SNORD25 /// SNORD26 /// SNORD27 /// SNORD28 /// SNORD29 /// SNORD31 / Fold change (Aza/veh), C12orf56 (ProbeSet 11735607_a_at) / Fold change (ACY-1035/veh), C12orf56 (ProbeSet 11735607_a_at) / Fold change (Aza/veh), FGFR1OP (ProbeSet 11751329_s_at) / Fold change (ACY-1035/veh), FGFR1OP (ProbeSet 11751329_s_at) / Fold change (Aza/veh), VPS36 (ProbeSet 11739960_a_at) / Fold change (ACY-1035/veh), VPS36 (ProbeSet 11739960_a_at) / RFU SYPL1 (11715823_x_at) / Fold change /veh SYPL1 (11715823_x_at) / RFU IGFBP7 (11715501_s_at) / Fold change /veh IGFBP7 (11715501_s_at) / RFU REEP3 (11722064_at) / Fold change /veh REEP3 (11722064_at) / RFU IGLL1 (11728026_x_at) / Fold change /veh IGLL1 (11728026_x_at): dose or concentration left out as unconfirmed
Details: ProbeSet 11732433_s_at; LIST B

SMILES: Nc1ncn([C@@H]2O[C@H](CO)[C@@H](O)[C@H]2O)c(=O)n1 [azacitidine]
- Fold change vs veh, GK: 0.93
